Test results from the supplement of paper PMC13380429.

Columns and labels:
Settings in all cases: 72 h
Caco-2 [1] = assay: cell viability relative to DMSO; higher = less toxic
Calu-3 [2] = assay: as above
HepG2 [3] = assay: as above
U2OS [4] = assay: as above
Vero E6 [5] = assay: as above
Caco-2 [6] = assay: relative viability EC50 (midpoint between 100% and the lowest measured viability); higher = less toxic
Calu-3 [7] = assay: as above
HepG2 [8] = assay: as above
U2OS [9] = assay: as above
Vero E6 [10] = assay: as above
Caco-2 [11] = assay: drug sensitivity score (DSS) for viability; higher = more toxic; extreme values may be limits of the assay
Calu-3 [12] = assay: as above
HepG2 [13] = assay: as above
U2OS [14] = assay: as above
Vero E6 [15] = assay: as above

SMILES	cell viability (Caco-2 [1]; 1 nM) [%]	cell viability (Caco-2 [1]; 10 nM) [%]	cell viability (Caco-2 [1]; 100 nM) [%]	cell viability (Caco-2 [1]; 1000 nM) [%]	cell viability (Caco-2 [1]; 10000 nM) [%]	cell viability (Calu-3 [2]; 1 nM) [%]	cell viability (Calu-3 [2]; 10 nM) [%]	cell viability (Calu-3 [2]; 100 nM) [%]	cell viability (Calu-3 [2]; 1000 nM) [%]	cell viability (Calu-3 [2]; 10000 nM) [%]	cell viability (HepG2 [3]; 1 nM) [%]	cell viability (HepG2 [3]; 10 nM) [%]	cell viability (HepG2 [3]; 100 nM) [%]	cell viability (HepG2 [3]; 1000 nM) [%]	cell viability (HepG2 [3]; 10000 nM) [%]	cell viability (U2OS [4]; 1 nM) [%]	cell viability (U2OS [4]; 10 nM) [%]	cell viability (U2OS [4]; 100 nM) [%]	cell viability (U2OS [4]; 1000 nM) [%]	cell viability (U2OS [4]; 10000 nM) [%]	cell viability (Vero E6 [5]; 1 nM) [%]	cell viability (Vero E6 [5]; 10 nM) [%]	cell viability (Vero E6 [5]; 100 nM) [%]	cell viability (Vero E6 [5]; 1000 nM) [%]	cell viability (Vero E6 [5]; 10000 nM) [%]	relative viability EC50 (Caco-2 [6]) [µM]	relative viability EC50 (Calu-3 [7]) [µM]	relative viability EC50 (HepG2 [8]) [µM]	relative viability EC50 (U2OS [9]) [µM]	relative viability EC50 (Vero E6 [10]) [µM]	drug sensitivity score (Caco-2 [11])	drug sensitivity score (Calu-3 [12])	drug sensitivity score (HepG2 [13])	drug sensitivity score (U2OS [14])	drug sensitivity score (Vero E6 [15])
CCN(CC)c1ccc(C(=C2C=CC(=[N+](CC)CC)C=C2)c2ccccc2)cc1 [brilliant-green]	92.4	92.5	69.4	0.4	-0.3	94.6	101	72.4	16.2	0	109	97.7	58.8	5.2	-0.3	93.6	95.5	47.8	0.8	-0.2	96.5	97.8	94.2	6.8	-0.2	0.148	0.235	0.128	0.0933	0.328	21.9	18.7	22.3	24.1	17.7
COc1c(C)cnc(Cn2cnc3c(Cl)nc(N)nc32)c1C [BIIB021]	91	101	92.8	65.8	39.5	102	109	105	49.4	39.4	94	100	60.8	1.5	0.6	99.4	99.4	93.3	27.7	4.4	101	104	103	51.8	36.7	0.746	0.538	0.12	0.495	0.633	7.5	9.3	23.1	14.5	9.1
COc1ccc(CNCc2cccc3ccccc23)cc1 [ML133]	92.5	95.6	98.5	99.9	88.3	101	101	102	104	94.6	97.8	108	101	110	112	104	94.9	100	98.9	97.5	91.2	100	94.1	99	101	> 10	> 10	> 10	> 10	> 10	0	0	0	0	0
CN([C@@H](Cc1ccc(OS(=O)(=O)c2cccc3cnccc23)cc1)C(=O)N1CCN(c2ccccc2)CC1)S(=O)(=O)c1cccc2cnccc12 [KN-62]	93.4	119	112	89.6	101	105	95.8	98	93.9	91.1	123	110	105	101	95.7	101	100	99.9	95.4	92.3	104	96.6	98.9	96.3	94.8	> 10	> 10	> 10	> 10	> 10	0	0	0	0	0
C[N+](C)(C)CCOC(=O)CCC(=O)OCC[N+](C)(C)C [succinylcholine-chloride]	103	97.3	99.9	97.2	104	101	103	101	94.8	106	106	97.2	106	93.3	102	98.7	103	101	101	102	108	95.8	102	89.7	102	> 10	> 10	> 10	> 10	> 10	0	0	0	0	0
CCC(=O)NC1CCc2cccc(OC)c2C1 (stereo not given) [8-M-PDOT]	100	99.5	99.3	98.7	119	109	112	102	97.6	112	100	94.6	101	99.1	102	104	97.9	103	101	109	99.6	106	98.5	103	106	> 10	> 10	> 10	> 10	> 10	0	0	0	0	0
CC1(C)C(=O)N(CCN2CCC(C(=O)c3ccc(F)cc3)CC2)c2ccccc21	88.5	102	104	97.2	91.6	99.5	91.4	90.6	98.4	89.8	95.3	102	90.8	97	87.8	97.7	96.3	98.2	95.9	97.8	96.1	102	91.8	94.2	106	> 10	> 10	> 10	> 10	> 10	0	0	0	0	0
C[C@@H](NCc1cc(Br)cc2nc(O)c(O)nc12)P(=O)(O)O	97	100	109	94.4	97.5	103	86	81	110	102	94.2	94	99.4	93.3	89.2	107	97.2	96.6	92.5	98.4	105	105	103	98.8	96.1	> 10	> 10	> 10	> 10	> 10	0	0	0	0	0
O=C(NCCCN1CCCCCC1)C(c1ccccc1)C1CCCCC1 (stereo not given)	101	101	105	107	95	111	94.1	102	104	98.8	107	107	100	89	84.7	104	101	101	106	95.7	95.8	96.1	96.5	99.6	94.9	> 10	> 10	> 10	> 10	> 10	0	0	1	0	0
CCOC(=O)c1ccc(N(C)c2csc(-c3ccccc3)n2)cc1 [neuropathiazol]	92.9	94.1	80.2	97.3	104	92.4	97.2	108	110	97.3	86.2	97.3	103	107	93.2	101	97.2	98.8	99.5	99.3	108	103	96.2	101	96.3	> 10	> 10	> 10	> 10	> 10	0	0	0	0	0
O=[N+]([O-])C(Br)(CO)CO [bronopol]	95.2	95.2	96.5	98.7	113	110	98.6	91.6	103	105	112	108	107	93.3	108	95.5	102	95.7	101	102	105	84.2	106	90.6	99	> 10	> 10	> 10	> 10	> 10	0	0	0	0	0
C[C@H]1O[C@@H](O[C@H]2[C@@H](O)C[C@H](O[C@H]3[C@@H](O)C[C@H](O[C@H]4CC[C@@]5(C)[C@H](CC[C@@H]6[C@@H]5C[C@@H](O)[C@]5(C)[C@@H](C7=CC(=O)OC7)CC[C@]65O)C4)O[C@@H]3C)O[C@@H]2C)C[C@H](O)[C@@H]1O [digoxin]	97.7	99.5	65.7	21	20.3	101	102	96.4	26.5	12.8	107	105	72	16.4	8.7	97.3	96.1	82.7	4.6	4.8	95.1	94.9	5.8	1.2	1.3	0.114	0.449	0.177	0.182	0.031	18.9	14	18.9	20.1	30.2
O=C(Nc1ccc(Cl)nc1)c1ccc(Cl)cc1	103	90.2	97.8	98.8	102	94.9	90.6	96.6	94.2	102	97.5	109	106	103	110	95.6	94.3	101	93.2	95.7	95.4	98.7	95.9	94.1	100	> 10	> 10	> 10	> 10	> 10	0	0	0	0	0
C=CC(=O)Nc1ccc2ncnc(Nc3ccc(OCc4cccc(F)c4)c(Cl)c3)c2c1 [AST-1306]	93.4	105	83.3	80.6	6.1	98.9	80.4	40.4	32.3	4.3	102	96.7	107	92.8	48.2	91.4	72.7	91.5	61.3	23.4	99.8	97	83.7	51.8	17.7	1.72	0.0782	2.06	0.665	0.575	8.3	22.6	4	9.8	11.3
